Where two headings read alike, the source gives them in different places.
Columns and labels:
PrP^sc = format: biochemical, bovine; settings: for location of PrP^sc bands (starting supernatant or pellet) after centrifugation: 2.5, 5, 10 mg added to 50 μl PrP^sc sample, 37° C. 1 h; for location of PrP^sc bands (starting supernatant or pellet) after centrifugation / crosslinking and precipitation of PrP: FIG. 4; for crosslinking and precipitation of PrP: simple centrifuge, no ultracentrifugation
PrP^res = format: biochemical, human

## NCCCNCCCN [bis-3-aminopropylamine]
PrP^sc; 130-1040 μg added to 5 μl PrP^sc, 30 min room temperature, pellet supernatant, FIG. 6
  apparent molecular mass of the prion protein bands compared to a control without molecule: induces an increase in the apparent molecular mass of the 3 prion protein bands
PrP^sc; 130-1040 μg, 12 000 rpm 5 min, FIG. 6
  precipitation of the prion protein on centrifugation: the prion protein precipitates

## [H]/N=C(/N)N[C@H]1[C@H](O)[C@@H](O)[C@H](O[C@@H]2O[C@@H](C)[C@](O)(C=O)[C@H]2O[C@@H]2O[C@@H](CO)[C@H](O)[C@@H](O)[C@@H]2NC)[C@@H](N/C(N)=N\[H])[C@@H]1O [streptomycin]
PrP^sc; 12 000 rpm 5 min
  location of PrP^sc bands (starting supernatant or pellet) after centrifugation: the PrP^sc material is found in the pellet
PrP^sc
  crosslinking and precipitation of PrP: induces crosslinking of PrP which allows complete precipitation thereof

## heparin
PrP^res
  sensitivity and specificity of detection of PrP^res of lymphoid origin in blood samples: confirms the sensitivity and the specificity of detection of PrP^res

## CN[C@@H]1[C@H](O[C@H]2[C@H](O[C@H]3[C@H](O)[C@@H](O)[C@H](NC(=N)N)[C@@H](O)[C@@H]3NC(=N)N)O[C@@H](C)[C@]2(O)CO)O[C@@H](CO)[C@H](O)[C@H]1O [dihydrostreptomycin sesquisulfate]
PrP^sc; 12 000 rpm 5 min
  location of PrP^sc bands (starting supernatant or pellet) after centrifugation: the PrP^sc material is found in the pellet
PrP^sc
  crosslinking and precipitation of PrP: induces crosslinking of PrP which allows complete precipitation thereof

## NCCNCCNCCN [triethylenetetramine]
PrP^sc; 105-840 μg TET added to 5 μl PrP^sc (250 μg brain), supernatant, FIG. 5
  apparent molecular mass of the prion protein bands compared to a control without molecule: induces an increase in the apparent molecular mass of the prion protein
PrP^sc; 105-840 μg TET, FIG. 5
  crosslinking of PrP versus dose: a crosslinking of PrP proportional to the dose of TET
